Data on 1 molecule can be found in paper PMC5750651, “Disposition, Metabolism and Histone Deacetylase and Acetyltransferase Inhibition Activity of Tetrahydrocurcumin and Other Curcuminoids” (Pharmaceutics, 2017).

Test [1] concerns TNF-α release in Sup-T1 cells. In words: Cellular inflammatory cytokine release assay (TNF-α ELISA). It is filed as cell-based, human. Conditions: Sup-T1 cells, 5, 10, 50 and 100 μM, versus no-treatment control. How it is done: Cell culture supernatant was collected and used to determine released TNF-α using the Human TNF-alpha DuoSet ELISA kit (DY210, R & D systems, Minneapolis, MN, USA) following the standard manufacturer’s protocol, optimized using recombinant TNF-α. […] The data were analyzed using SigmaPlot 12.2 (Systat Software Inc., San Jose, CA, USA).
In general terms: ELISA stands for enzyme-linked immunosorbent assay.

The target of the next test is T1, COX-1 (Ovis aries, UniProt P05979).
T1 construct: purchased Cayman Chemical 560131
T1 sequence (P05979 25-600): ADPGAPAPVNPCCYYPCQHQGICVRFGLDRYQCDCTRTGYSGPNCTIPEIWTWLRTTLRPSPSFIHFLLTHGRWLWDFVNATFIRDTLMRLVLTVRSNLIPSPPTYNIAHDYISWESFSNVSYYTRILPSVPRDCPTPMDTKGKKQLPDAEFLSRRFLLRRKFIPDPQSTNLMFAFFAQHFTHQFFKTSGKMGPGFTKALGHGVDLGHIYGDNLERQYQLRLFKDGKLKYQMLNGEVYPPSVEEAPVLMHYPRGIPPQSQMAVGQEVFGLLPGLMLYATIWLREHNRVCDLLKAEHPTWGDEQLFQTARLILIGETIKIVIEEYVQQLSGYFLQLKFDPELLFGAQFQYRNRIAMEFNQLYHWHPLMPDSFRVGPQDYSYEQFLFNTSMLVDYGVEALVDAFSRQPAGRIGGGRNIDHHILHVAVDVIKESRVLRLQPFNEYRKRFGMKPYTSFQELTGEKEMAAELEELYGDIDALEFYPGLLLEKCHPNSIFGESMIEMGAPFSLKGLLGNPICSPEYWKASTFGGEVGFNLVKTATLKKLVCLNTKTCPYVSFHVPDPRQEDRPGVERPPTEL
In words: COX inhibitor screening assay kit, COX-1. As to conditions: mean ± SD. It is filed as biochemical. On the procedure:
The assay was performed in quadruplet using a COX Inhibitor Screening Assay Kit from Cayman Chemical (Cat. No. 560131) according to the manufacturer’s instructions.

In a further test the test system is Sup-T1 cells. In words: Cellular growth inhibition assay (MTS). It is filed as cell-based. Conditions: Homo sapiens, SUP-T1, read-out: Viability IC50. On the procedure:
The CellTiter 96® AQueous One Solution Cell Proliferation Assay (MTS, Promega, Madison, WI, USA) was used to measure proliferation inhibition of cultured cells. Briefly, Sup-T1 cells were cultured in RPMI 1640 supplemented with 10% FBS and 1% penicillin/streptomycin at 37 °C and 5% CO2. […] The MTS reagent was added and incubated for 4 h. […] Sup-T1 cells were used in this study because curcuminoids are thought in part to work via an HDAC inhibitor mechanism and as some HDACs are approved for some T-cell lymphomas, we used Sup-T1 cells because they are a T-cell lymphoma cell line that is established. To the best of our knowledge no other study has measured the effects of THC on Sup-T1 cells.
(§1) Data for the PCAF and HDAC1 inhibition and viability assays were used to derive percent changes based on no treatment controls. Each of three data sets were then fit to a 4-parameter logistic regression using SigmaPlot 12.2 to derive IC50 values, which were then used to determine the mean and SD.

For test [2], the target named is T2, 15-lipoxygenase derived from soybean (Glycine max, UniProt P08170).
T2 sequence (P08170 1-839): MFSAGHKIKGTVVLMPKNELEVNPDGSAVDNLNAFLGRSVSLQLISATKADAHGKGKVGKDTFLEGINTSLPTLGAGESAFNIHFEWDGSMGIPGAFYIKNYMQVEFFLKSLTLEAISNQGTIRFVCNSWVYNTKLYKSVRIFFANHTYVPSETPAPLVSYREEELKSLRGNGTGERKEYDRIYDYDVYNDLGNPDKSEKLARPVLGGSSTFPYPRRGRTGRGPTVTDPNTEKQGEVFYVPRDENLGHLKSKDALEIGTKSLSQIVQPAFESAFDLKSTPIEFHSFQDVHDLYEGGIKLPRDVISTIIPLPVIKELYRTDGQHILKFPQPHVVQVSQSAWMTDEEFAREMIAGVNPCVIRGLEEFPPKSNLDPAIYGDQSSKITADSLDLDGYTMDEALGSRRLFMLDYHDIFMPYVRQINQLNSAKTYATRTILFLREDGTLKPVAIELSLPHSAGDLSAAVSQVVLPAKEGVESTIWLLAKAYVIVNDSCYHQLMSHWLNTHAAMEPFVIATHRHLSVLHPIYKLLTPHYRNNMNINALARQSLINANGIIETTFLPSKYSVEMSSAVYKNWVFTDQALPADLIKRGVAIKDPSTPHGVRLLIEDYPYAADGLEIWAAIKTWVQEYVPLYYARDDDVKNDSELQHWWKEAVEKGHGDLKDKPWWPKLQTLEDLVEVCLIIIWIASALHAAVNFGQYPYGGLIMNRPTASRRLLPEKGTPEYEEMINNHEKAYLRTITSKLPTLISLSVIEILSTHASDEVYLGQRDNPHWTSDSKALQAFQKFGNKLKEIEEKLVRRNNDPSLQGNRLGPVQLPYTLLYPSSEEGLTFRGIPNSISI
In words: Lipoxygenase inhibitor screening assay kit.

A further test concerns the target T3, PCAF (Homo sapiens, UniProt Q92831).
T3 construct: purchased Cayman 10006515
In words: PCAF inhibitor screening assay kit (fluorescence). It is filed as biochemical. Conditions: mean ± SD. How it is done:
Curcuminoids were tested for direct HDAC1 and PCAF inhibitory activity using the fluorescent-based HDAC1 or PCAF inhibitor screening assay kit ((HDAC1) 10011564, (PCAF) 10006515, Cayman, Ann Arbor, MI, USA) according to manufacturer’s instructions.
as §1

Structures are written as SMILES.

T3 sequence (Q92831 492-658 limits assumed): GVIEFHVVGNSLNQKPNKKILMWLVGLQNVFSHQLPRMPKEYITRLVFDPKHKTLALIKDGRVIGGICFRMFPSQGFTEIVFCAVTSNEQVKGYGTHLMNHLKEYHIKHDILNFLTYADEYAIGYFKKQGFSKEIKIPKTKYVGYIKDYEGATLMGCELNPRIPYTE

As usually defined, the IC50 is the concentration that inhibits the measured activity by half. `COc1cc(/C=C/C(=O)CC(=O)/C=C/c2ccc(O)c(OC)c2)ccc1O` [Curcumin, curcumin]: the “change in TNF-α concentration (in words)” value in test [1] is “slight decrease”. The IC50 against COX-1 stood at 3390 ± 8980 µM; in the test with Sup-T1 cells it was 19 ± 11 µM; on PCAF, 33.1 ± 2.8 µM. The “lipoxygenase inhibition (in words)” value in test [2] (1, 10 and 250 μg/mL tested, versus control) is “inhibited soybean 1,5-lipoxygenase at all doses tested”. For the same molecule, the “lowest concentration inhibiting lipoxygenase” value in test [2] (soybean 15-lipoxygenase, linoleic acid substrate) was at most 1 µM.
